Results as given in patent US20220160812A1, “A PHARMACEUTICALLY ACTIVE SUBSTANCE” (Cytopharma GmbH, priority 2019, published 2022).
“Also recorded” adds a separate entry of the source. Non-standard residues stand in square brackets, D forms with d. Residues, ends and D or L forms follow the SMILES beside them.

Key:
[1] = system: human peripheral blood mononuclear cells (Lymphocyte, PBMC); assay: cell vitality FACS analysis (region R-1), healthy lymphocytes (PBMC); format: cell-based; details: Protocol A, 50, 100, 200 μM, about 24 hours per Examples (FIG. 11 legend: about 2 hours)
Protocol: Human lymphocytes are obtained as peripheral blood mononuclear cells (“PBMC”) from whole blood. For this purpose, 15 ml of heparinized whole blood (heparin tube, Sarstedt) were layered on 15 ml Biocoll in LeucoSep tubes and obtained by centrifugation (10 min at 120 g) as the top layer (“lymphocytes”) and so separated from other cells. For induction with peptides, 1×10^6 lymphocytes are seeded into each well of the 48-well plates.
After addition of the peptides diluted in culture medium to the cells (MEC-1 or lymphocytes) in the respective cavity, the cells are cultured for 2 to 4 hours at 37 degrees Celsius and 5% CO2. The cell suspension is centrifuged in centrifuge tubes at 120 g, the cells are suspended in 500 μl serum-free culture medium, then 1.5 ml of cold 80% ethanol (ethanol/PBS-80/20, v/v; stored at −20 degrees Celsius) is added, the FACS tubes sealed and stored at −20 degrees Celsius for a maximum of 18 h. The cells are centrifuged for 5 min at 120 g and suspended in 2 ml PBS, then incubated for 30 min at 37 degrees Celsius. After renewed centrifugation, the cells are suspended in 0.5 ml DAPI solution and incubated for 15 min at 20 degrees Celsius in the dark. Thereafter, the cells are stored dark for a maximum of four hours in an ice bath, then the FACS analysis.
(§1) To transfer adherent cells (A375 and BxPC-3 cells) after culture, cells are washed twice with PBS. To detach the cells, the enzyme biotase is used according to the manufacturer's instructions. For this purpose, after washing with PBS, the cells are mixed with biotase (5 ml of biotase solution per 75 cm^2 surface of the cell culture bottles) and incubated for 5 min at 37 degrees Celsius, and the biotase is separated by centrifugation. Cells cultivated in suspension (MEC-1 and lymphocytes) were transferred by dilution. The cells are suspended in culture medium and counted, each time 1.5×10^5 cells/cm^2 are seeded in 48-well plates and cultured for between 1.5 and 24 hours at 37 degrees Celsius, 5% CO2. Peptides are pre-diluted from stock solution with culture medium and 200 μl of peptide solution added so that final concentrations of 30 to 500 μM peptide are present in at most 1% (v/v) DMSO. As control solutions, culture medium without peptide (DMSO-containing) in culture medium or etoposide solution is added. After incubating the cells for several hours, the cell supernatant is transferred to a FACS tube for each batch and, after washing the cells with PBS, the wash solution is added. Then the cells are incubated with 200 μl of biotase solution for 10 min, 37° C., the cells with the biotase are also transferred to the FACS tube and the cells are collected by centrifugation for 5 min. The cell pellet is suspended in 500 μl of serum-free culture medium, then 1.5 ml of cold 80% ethanol (ethanol/PBS-80/20, v/v, stored at −20° C.) is added, the FACS tubes sealed and stored at −20 degrees Celsius for 15 to 18 h. Thereafter, the cells are centrifuged for 5 minutes at 120 g, suspended after removal of the supernatant in 2 ml PBS and incubated at 37 degrees Celsius for 30 minutes. After re-centrifugation, the cells are suspended in 0.5 ml DAPI solution and incubated for 15 min at 20 degrees Celsius in the dark. Thereafter, the cells are stored dark for a maximum of four hours in an ice bath, followed by the FACS analysis.
Changes of the cell form during cell death by apoptosis are documented in the literature (Lizard et al. 1995; Taga et al. 2000; Vermes et al., 2000). The protocols for cell cultivation, treatment and preparation of the cells before flow cytometry is detailed in separate examples. Cell suspensions of cell lines A375, BxPC-3, MEC-1 or of primary lymphocytes (see separate example of lymphocyte preparation) are analyzed by flow cytometry. The data are further analyzed by using the program “Flowing Software 2”. The data of light scattering are drawn in a two-dimensional FSC/SSC plot. […]

[2] = system: A375 melanoma cells; assay: cell vitality FACS analysis (region R-1, FSC/SSC), A375 melanoma cells; format: cell-based, human; details: A375, Protocol A, about 24 hours, FIG. 7
Protocol: as §1
For suspension cells (MEC-1 and lymphocytes/PBMC) and for adherent cells analyzed according to Protocol A, FACS analysis to determine subG1 cell cycle and vital cell fractions was done on a Becton Dickinson LSR Fortessa flow cytometer. The analysis by FACS including subG1 and vital cell analysis according to protocol B was performed with a Cytomics FC 500 MPL flow cytometer from Beckman Coulter.
Changes of the cell form during cell death by apoptosis are documented in the literature (Lizard et al. 1995; Taga et al. 2000; Vermes et al., 2000). The protocols for cell cultivation, treatment and preparation of the cells before flow cytometry is detailed in separate examples. Cell suspensions of cell lines A375, BxPC-3, MEC-1 or of primary lymphocytes (see separate example of lymphocyte preparation) are analyzed by flow cytometry. The data are further analyzed by using the program “Flowing Software 2”. The data of light scattering are drawn in a two-dimensional FSC/SSC plot. Since the position in the FSC/SSC plot of apoptotic cells changes relative to non-apoptotic cells (Vermes et al., 2000), a region (R-1) is drawn representing mainly non-apoptotic cells and excluding cells with both low FSC and low SSC values and excluding cells with high values of FSC and/or SSC (FIG. 1). The regions are individually selected for each cell type (A375, BxPC-3, MEC-1 and primary lymphocytes). The percentage of untreated non-apoptotic cells in the region R-1 relative to total cells is set to 100%, representing 100% vital cells. The fraction (%) of cells in R-1 relative to the total number of cells in case of cell treatment by certain peptides or by cytotoxic drugs results in cell vitality, below 100%, thereby indicating a loss of cell vitality by the treatment. […]

Compound	tolerance by healthy Lymphocyte (PBMC) cells (cell vitality) [1]	also measured
CSCC[C@@H](NC(=O)[C@@H](Cc1c[nH]c2ccccc12)NC(=O)[C@@H](CCCCN)NC(=O)[C@H](N)CCCCN)C(=O)N[C@@H](C(=O)N[C@@H](C(=O)N[C@H](Cc1ccc(O)cc1)C(=O)N[C@H](Cc1ccccc1)C(=O)N[C@H](CCCNC(=N)N)C(=O)O)C(C)C)C(C)C [SEQID No 25, k-k-w-m-v-v-y-f-r] (H-[dK][dK][dW][dM][dV][dV][dY][dF][dR]-OH; N-terminus and C-terminus assumed)	not so well tolerated by the healthy cells	
CSCC[C@@H](NC(=O)[C@@H](Cc1c[nH]c2ccccc12)NC(=O)[C@H](N)CCCCN)C(=O)N[C@@H](C(=O)N[C@@H](C(=O)N[C@H](Cc1ccc(O)cc1)C(=O)N[C@H](Cc1ccccc1)C(=O)N[C@H](CCCNC(=N)N)C(=O)N[C@H](CCCCN)C(=O)O)C(C)C)C(C)C [SEQID No 26, k-w-m-v-v-y-f-r-k] (H-[dK][dW][dM][dV][dV][dY][dF][dR][dK]-OH; N-terminus and C-terminus assumed)	not so well tolerated by the healthy cells	
CSCC[C@@H](NC(=O)[C@@H](Cc1c[nH]c2ccccc12)NC(=O)[C@@H](CCCCN)NC(=O)[C@H](N)CCCCN)C(=O)N[C@@H](C(=O)N[C@@H](C(=O)N[C@H](Cc1ccc(O)cc1)C(=O)N[C@H](Cc1ccccc1)C(=O)N[C@H](CCCNC(=N)N)C(=O)N[C@H](CCCCN)C(=O)O)C(C)C)C(C)C [SEQID No 27, k-k-w-m-v-v-y-f-r-k] (H-[dK][dK][dW][dM][dV][dV][dY][dF][dR][dK]-OH; N-terminus and C-terminus assumed)	not remarkably damaged; also recorded: very good tolerated by the healthy cells (low toxic effect)	
CSCC[C@@H](NC(=O)[C@@H](Cc1c[nH]c2ccccc12)NC(=O)[C@@H](CCCCN)NC(=O)[C@H](N)CCCCN)C(=O)N[C@@H](C(=O)N[C@@H](C(=O)N[C@H](Cc1ccc(O)cc1)C(=O)N[C@H](Cc1ccccc1)C(=O)N[C@H](CCCNC(=N)N)C(=O)N[C@H](CCCCN)C(=O)N[C@H](CO)C(=O)N[C@H](CO)C(=O)N[C@H](CCCNC(=N)N)C(=O)O)C(C)C)C(C)C [SEQID No 30, k-k-w-m-v-v-y-f-r-k-s-s-r] (H-[dK][dK][dW][dM][dV][dV][dY][dF][dR][dK][dS][dS][dR]-OH; N-terminus and C-terminus assumed)	well tolerated	tolerance by healthy Lymphocyte (PBMC) cells (cell vitality) ([1]; listed as SEQID NO 30): not remarkably damaged
CSCC[C@@H](NC(=O)[C@@H](Cc1c[nH]c2ccccc12)NC(=O)[C@@H](CCCCN)NC(=O)[C@@H](CCCCN)NC(=O)[C@@H](CO)NC(=O)[C@@H](CCCNC(=N)N)NC(=O)[C@H](N)CCC(=O)O)C(=O)N[C@@H](C(=O)N[C@@H](C(=O)N[C@H](Cc1ccc(O)cc1)C(=O)N[C@H](Cc1ccccc1)C(=O)N[C@H](CCCNC(=N)N)C(=O)N[C@H](CCCCN)C(=O)O)C(C)C)C(C)C [SEQID No 31, e-r-s-k-k-w-m-v-v-y-f-r-k] (H-[dE][dR][dS][dK][dK][dW][dM][dV][dV][dY][dF][dR][dK]-OH; N-terminus and C-terminus assumed)	not remarkably damaged	
CSCC[C@@H](NC(=O)[C@@H](Cc1c[nH]c2ccccc12)NC(=O)[C@@H](CCCCN)NC(=O)[C@H](N)CCCCN)C(=O)N[C@@H](C(=O)N[C@@H](C(=O)N[C@H](Cc1ccc(O)cc1)C(=O)N[C@H](Cc1ccccc1)C(=O)N[C@H](CCCNC(=N)N)C(=O)N[C@H](CCCCN)C(=O)N[C@H](CCC(=O)O)C(=O)N[C@H](C)C(=O)N[C@H](CCCNC(=N)N)C(=O)O)C(C)C)C(C)C [SEQID No 32, k-k-w-m-v-v-y-f-r-k-e-a-r] (H-[dK][dK][dW][dM][dV][dV][dY][dF][dR][dK][dE][dA][dR]-OH; N-terminus and C-terminus assumed)	not remarkably damaged	
CSCC[C@@H](NC(=O)[C@@H](Cc1c[nH]c2ccccc12)NC(=O)[C@@H](CCCCN)NC(=O)[C@@H](CCCCN)NC(=O)[C@H](NC(=O)[C@@H](CO)NC(=O)[C@H](N)CCCNC(=N)N)[C@H](C)O)C(=O)N[C@@H](C(=O)N[C@@H](C(=O)N[C@H](Cc1ccc(O)cc1)C(=O)N[C@H](Cc1ccccc1)C(=O)N[C@H](CCCNC(=N)N)C(=O)N[C@H](CCCCN)C(=O)O)C(C)C)C(C)C [SEQID No 33, r-s-t-k-k-w-m-v-v-y-f-r-k] (H-[dR][dS][dT][dK][dK][dW][dM][dV][dV][dY][dF][dR][dK]-OH; N-terminus and C-terminus assumed)	not remarkably damaged; also recorded: well tolerated	
d-k-w-m-v-v-y-f-r-d [SEQID No 39]		decrease of cell vitality, comparison in words ([2]; 100 μM): higher apoptosis rate at a concentration of 100 μM as peptide SEQID NO 27; decrease of cell vitality, comparison in words ([2]; any concentration (100, 200, 500 μM)): significantly greater decrease than the peptide of the prior art (Peptide SEQ C1)
